Data taken from patent US9987276B2 (Celgene CAR LLC, priority 2008, dated 2018).
Entries after “also recorded” stand apart in the source; their conditions may differ.

Columns and labels:
BTK [1] = molecular target: T1, BTK (Homo sapiens (Human), UniProt Q06187); test: Omnia assay for potency assessment against BTK; assay type: biochemical; conditions: [BTK]=5 nM, Omnia assay; read-out: BTK Inhibition (IC50)
Method: The modified BTK-optimized reagent conditions for the above protocol are:
[BTK]=5 nM, [ATP]=[…], [Y5-Sox]=[…] (ATP KMapp˜[…]).

BTK [2] = molecular target: T1, BTK; test: Washout experiment with Ramos cells; assay type: cell-based; conditions: 100 nM compound for 1 hour, then washout
Method: Ramos cells were serum starved for one hour in RPMI media+1% glutamine at 37° C. After starvation, Ramos cells were treated with 100 nM compound diluted in serum free RPMI media for 1 hour. After compound treatment, the media was removed and cells were washed with compound-free media. Subsequently, Ramos cells were washed every 2 hours and resuspended in fresh compound-free media. Cells were collected at specified timepoints, treated with 1 ug anti-human IgM (Southern Biotech cat #2022-01) for 10 minutes on ice to induce BCR signaling and then washed in PBS. Ramos cells were then lysed in Cell Extraction Buffer (Invitrogen FNN0011) supplemented with Roche complete protease inhibitor tablets (Roche 11697498001) and phosphatase inhibitors (Roche 04 906 837 001) and 18 ug total protein lysate was loaded in each lane. Inhibition of BTK kinase activity was assayed by measuring its substrate (PLCγ2) phosphorylation by western blot with phospho-specific antibodies from Cell Signaling Technologies cat #3871. The results of this experiment with compounds I-2, I-4 and I-7 are depicted in FIGS. 1, 2 and 3.

BTK [3] = molecular target: T1, BTK; test: Mass spectrometry for BTK (intact protein); assay type: binding; conditions: 1 hr, 10× fold excess of compound
Method: Intact BTK was incubated for 1 hr at a 10× fold excess of I-7 to protein. Aliquots (2 μl) of the samples were diluted with 10 μl of 0.1% TFA prior to micro C4 ZipTipping directly onto the MALDI target using Sinapinic acid as the desorption matrix (10 mg/ml in 0.1% TFA:Acetonitrile 20:80).

[4] = Collagen antibody induced arthritis model; assay type: in vivo; conditions: Dose 30 mg/kg
Method: On day 0 baseline footpad measurements were made and animals were distributed to the experimental groups in such a way as to generate groups with no significant differences between the groups. Each animal was then inoculated intravenously with 2 mg Arthritomab monoclonal antibody cocktail. Treatment with test agents began at this time. On day 6, each animal was injected intraperitoneally with 50 μg LPS in 200 μl of sterile PBS. Footpad measurements and clinical scoring were conducted on days 6, 7, 8, 9, 10, 11, 12, 14, 18, and 21.

PG-PS arthritis model = assay type: in vivo; conditions: female Lewis rats, oral gavage daily through day 22
Method: On day 0, female Lewis rats received an intraperitoneal (IP) bolus of peptidoglycan-polysaccharide (PG-PS) in an amount of 15 μg/g rat body weight. Baseline control rats received an IP bolus of PBS. The vehicle and treatment groups were dosed via oral gavage just prior to PG-PS administration. Treatment with vehicle and compound continued each day through day 22. Maximal lateral ankle width measurements of both rear limbs were collected with a caliper throughout the study. On day 23, study was terminated and the final change in ankle swelling was calculated and compared to vehicle controls.

BTK [5] = molecular target: T1, BTK; test: Washout experiment with I-7 and probe compound I-215 in Ramos cells; assay type: cell-based; conditions: 0.1 μM for 1 hour
EGFR-WT = EGFR-WT (Homo sapiens (Human), UniProt P00533); test: Omnia assay for potency assessment against EGFR (WT); conditions: read-out: EGFR (wild type inhibition); EGFR wild type
Chain of EGFR-WT (P00533 668-1210): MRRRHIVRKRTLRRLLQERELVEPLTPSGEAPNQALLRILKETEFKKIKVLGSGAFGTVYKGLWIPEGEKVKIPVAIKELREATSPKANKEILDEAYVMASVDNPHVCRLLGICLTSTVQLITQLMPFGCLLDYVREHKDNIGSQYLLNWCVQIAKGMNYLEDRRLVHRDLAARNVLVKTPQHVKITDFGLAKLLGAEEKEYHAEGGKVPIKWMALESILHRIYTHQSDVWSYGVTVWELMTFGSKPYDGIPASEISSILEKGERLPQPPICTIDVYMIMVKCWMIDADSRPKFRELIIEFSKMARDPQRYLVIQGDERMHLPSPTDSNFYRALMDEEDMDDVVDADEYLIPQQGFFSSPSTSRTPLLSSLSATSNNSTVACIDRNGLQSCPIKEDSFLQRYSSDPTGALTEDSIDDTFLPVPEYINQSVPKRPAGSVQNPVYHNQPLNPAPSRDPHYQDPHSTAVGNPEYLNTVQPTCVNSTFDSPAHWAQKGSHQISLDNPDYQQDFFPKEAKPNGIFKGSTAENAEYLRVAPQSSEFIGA

EGFR T790M = EGFR T790M (Homo sapiens (Human), UniProt P00533, T790M); test: EGFR mutant T790M inhibition assay; assay type: biochemical
Chain of EGFR T790M (P00533 25-1210 T790M): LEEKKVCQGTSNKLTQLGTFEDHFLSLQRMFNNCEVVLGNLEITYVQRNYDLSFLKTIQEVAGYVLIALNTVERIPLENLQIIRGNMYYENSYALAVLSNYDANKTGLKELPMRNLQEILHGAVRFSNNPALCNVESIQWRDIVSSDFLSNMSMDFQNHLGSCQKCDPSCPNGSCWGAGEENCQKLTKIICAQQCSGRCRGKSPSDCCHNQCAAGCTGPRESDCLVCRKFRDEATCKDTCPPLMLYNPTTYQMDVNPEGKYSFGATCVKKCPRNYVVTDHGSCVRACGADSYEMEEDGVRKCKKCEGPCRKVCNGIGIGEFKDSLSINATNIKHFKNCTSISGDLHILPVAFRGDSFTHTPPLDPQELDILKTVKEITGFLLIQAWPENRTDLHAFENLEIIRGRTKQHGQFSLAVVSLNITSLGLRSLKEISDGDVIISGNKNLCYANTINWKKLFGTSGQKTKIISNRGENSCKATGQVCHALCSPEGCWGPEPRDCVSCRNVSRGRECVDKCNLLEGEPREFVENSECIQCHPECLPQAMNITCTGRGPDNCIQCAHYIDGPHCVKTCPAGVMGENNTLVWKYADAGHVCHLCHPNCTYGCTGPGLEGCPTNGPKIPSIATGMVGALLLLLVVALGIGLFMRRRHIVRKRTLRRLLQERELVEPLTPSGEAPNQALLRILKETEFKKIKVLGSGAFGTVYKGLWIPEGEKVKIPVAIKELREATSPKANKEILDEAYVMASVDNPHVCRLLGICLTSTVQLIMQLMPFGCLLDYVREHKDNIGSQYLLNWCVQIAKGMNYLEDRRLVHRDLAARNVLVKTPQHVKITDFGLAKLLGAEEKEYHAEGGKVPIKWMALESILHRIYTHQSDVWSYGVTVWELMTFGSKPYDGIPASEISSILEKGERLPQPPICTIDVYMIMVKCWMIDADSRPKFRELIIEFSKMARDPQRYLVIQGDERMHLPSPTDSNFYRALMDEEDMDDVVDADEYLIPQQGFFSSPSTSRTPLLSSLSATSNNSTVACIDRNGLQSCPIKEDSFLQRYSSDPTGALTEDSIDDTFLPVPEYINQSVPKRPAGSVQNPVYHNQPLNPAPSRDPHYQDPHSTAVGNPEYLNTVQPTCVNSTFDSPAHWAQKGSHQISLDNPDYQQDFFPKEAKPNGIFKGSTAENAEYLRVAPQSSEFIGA
Method: The Omnia Assay Protocol for potency assessment against EGFR is performed as described in Example 251 above except that the EGFR-WT- and EGFR T790M/L858R-modified optimized reagent conditions are: […]

Erbb4 kinase domain = Erbb4 kinase domain (Homo sapiens (Human), UniProt Q15303); test: Mass spectrometry for ERBB4; assay type: binding; conditions: 60 minutes at 10-fold excess of compound
Chain of Erbb4 kinase domain (Q15303 718-985): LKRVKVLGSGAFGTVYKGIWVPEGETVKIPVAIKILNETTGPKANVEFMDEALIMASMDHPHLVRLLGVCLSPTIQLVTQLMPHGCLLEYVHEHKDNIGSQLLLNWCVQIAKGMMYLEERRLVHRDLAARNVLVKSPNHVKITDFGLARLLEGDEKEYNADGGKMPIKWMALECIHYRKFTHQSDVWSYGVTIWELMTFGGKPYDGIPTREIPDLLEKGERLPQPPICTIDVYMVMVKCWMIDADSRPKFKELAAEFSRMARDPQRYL
Method: Erbb4 kinase domain (Upstate) was incubated with compound for 60 minutes at 10-fold excess of compound I-4 and I-11 to protein. 1 μl aliquots of the samples (total volume of 4.24 ul) were diluted with 10 μl of 0.1% TFA prior to micro C4 ZipTipping directly onto the MALDI target using Sinapinic acid as the desorption matrix (10 mg/ml in 0.1% TFA:Acetonitrile 50:50). For intact protein mass measurement the instrument was set in Linear mode using a pulsed extraction setting of 16,952 for the myoglobin standard used to calibrate the instrument (Shimadzu Axima TOF^2).
Intact ErbB4 protein occurs at MH+ of 35850 with corresponding sinapinic (matrix) adducts occurring about 200 Da higher. A stochiometric incorporation of the test compound (I-4 and I-11) (Mw of 410 Da) produced a new mass peak which is approximately 410 Da higher (MH+ of 36260).

T1 sequence (Q06187 whole entry): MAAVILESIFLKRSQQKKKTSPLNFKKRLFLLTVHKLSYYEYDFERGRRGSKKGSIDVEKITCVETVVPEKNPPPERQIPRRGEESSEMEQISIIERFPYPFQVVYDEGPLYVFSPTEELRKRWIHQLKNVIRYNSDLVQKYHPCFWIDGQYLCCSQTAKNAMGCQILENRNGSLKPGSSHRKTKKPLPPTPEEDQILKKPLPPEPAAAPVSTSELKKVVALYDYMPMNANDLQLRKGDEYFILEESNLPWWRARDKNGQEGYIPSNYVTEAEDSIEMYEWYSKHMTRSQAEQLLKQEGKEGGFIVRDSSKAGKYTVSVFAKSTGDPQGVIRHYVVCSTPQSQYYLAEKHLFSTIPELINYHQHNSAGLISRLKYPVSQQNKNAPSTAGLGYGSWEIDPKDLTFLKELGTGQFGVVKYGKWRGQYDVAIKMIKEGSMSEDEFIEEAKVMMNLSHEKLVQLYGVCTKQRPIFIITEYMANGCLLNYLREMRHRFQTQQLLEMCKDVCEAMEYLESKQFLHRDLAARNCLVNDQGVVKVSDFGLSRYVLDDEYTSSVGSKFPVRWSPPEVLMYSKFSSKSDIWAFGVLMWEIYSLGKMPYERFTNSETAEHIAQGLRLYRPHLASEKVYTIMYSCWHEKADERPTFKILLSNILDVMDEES

IC50 (BTK [1]) | BTK Inhibition Type (BTK [2]) | time BTK protein remains occupied after compound removal (BTK [5]) | IC50 (EGFR-WT) | IC50 (EGFR T790M) | covalent modification of ErbB4 (mass spectrometry) (Erbb4 kinase domain) | SMILES | covalent modification of BTK (mass spectrometry) (BTK [3]) | % inhibition foot pad swelling [4] | % inhibition ankle swelling (PG-PS arthritis model)
< 10 nM | irreversible | over 8 hours | < 10 nM | – | – | C=CC(=O)Nc1cccc(Nc2nc(Nc3ccccc3)ncc2C)c1 [Compound I-7, N-(3-(5-methyl-2-(phenylamino)pyrimidin-4-ylamino)phenyl) acrylamide] | complete modification; also recorded: covalent modification | 83% | 77.5%
< 10 nM | irreversible | – | < 10 nM | < 10 nM | covalent modification | Cc1cccc(Nc2nc(Nc3cccc(NC(=O)/C=C/CN(C)C)c3)ncc2F)c1 [Compound I-4, (E)-4-(dimethylamino)-N-(3-(5-fluoro-4-(m-tolylamino)pyrimidin-2-ylamino)phenyl)but-2-enamide] | – | – | –
